From patent US20170298052A1, “SUBSTITUTED OXOPYRIDINE DERIVATIVES” (BAYER PHARMA AKTIENGESELLSCHAFT, priority 2014, published 2017) come the findings set out here.

SMILES strings stand for the structures.

In one assay the target is T1, human factor XIa (Homo sapiens, UniProt P03951).
T1 construct: purchased Kordia
Nature of the assay: Measurement of FXIa inhibition (fluorogenic peptide substrate, AMC cleavage). The assay is classed as biochemical. The settings on record: factor XIa from Kordia 0.45 nM; substrate Boc-Glu(OBzl)-Ala-Arg-AMC; 30 min at 22° C. As for the experimental part: The factor XIa inhibition of the substances according to the invention is determined using a biochemical test system which utilizes the reaction of a peptidic factor XIa substrate to determine the enzymatic activity of human factor XIa. Here, factor XIa cleaves from the peptic factor XIa substrate the C-terminal aminomethylcoumarin (AMC), the fluorescence of which is measured. The determinations are carried out in microtitre plates.
1 μl of the diluted substance solutions is placed into each of the wells of white microtitre plates from Greiner (384 wells). […] After 15 min of incubation, the enzyme reaction is started by addition of 20 μl of the factor XIa substrate Boc-Glu(OBzl)-Ala-Arg-AMC dissolved in assay buffer (10 μM in assay buffer) from Bachem, the mixture is incubated at room temperature (22° C.) for 30 min and fluorescence is then measured (excitation: 360 nm, emission: 460 nm). The measured emissions of the test batches with test substance are compared to those of control batches without test substance (only dimethyl sulphoxide instead of test substance in dimethyl sulphoxide), and IC50 values are calculated from the concentration/activity relationships.

In the next assay the target is human plasma kallikrein (Homo sapiens, UniProt P03952). Nature of the assay: Determination of the plasma kallikrein activity (fluorogenic peptide substrate, AMC cleavage). It counts as biochemical. Particulars: plasma kallikrein from Kordia 0.6 nM; substrate H-Pro-Phe-Arg-AMC; 30 min at 22° C.; read-out: IC50 [nM] (Table B, plasma kallikrein inhibition). How it is done: To determine the plasma kallikrein inhibition of the substances according to the invention, a biochemical test system is used which utilizes the reaction of a peptidic plasma kallikrein substrate to determine the enzymatic activity of human plasma kallikrein. Here, plasma kallikrein cleaves from the peptic plasma kallikrein substrate the C-terminal aminomethylcoumarin (AMC), the fluorescence of which is measured. The determinations are carried out in microtitre plates.
Chain of human plasma kallikrein (P03952 391-638 limits assumed): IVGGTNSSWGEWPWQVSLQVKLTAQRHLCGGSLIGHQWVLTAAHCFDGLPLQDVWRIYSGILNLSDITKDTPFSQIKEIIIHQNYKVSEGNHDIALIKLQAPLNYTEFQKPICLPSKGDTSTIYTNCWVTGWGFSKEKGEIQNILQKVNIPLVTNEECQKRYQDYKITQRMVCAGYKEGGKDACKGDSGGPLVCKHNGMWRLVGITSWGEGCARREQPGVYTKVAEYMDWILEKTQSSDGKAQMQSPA
Chain of human plasma kallikrein (P03952 20-390 partner limits assumed): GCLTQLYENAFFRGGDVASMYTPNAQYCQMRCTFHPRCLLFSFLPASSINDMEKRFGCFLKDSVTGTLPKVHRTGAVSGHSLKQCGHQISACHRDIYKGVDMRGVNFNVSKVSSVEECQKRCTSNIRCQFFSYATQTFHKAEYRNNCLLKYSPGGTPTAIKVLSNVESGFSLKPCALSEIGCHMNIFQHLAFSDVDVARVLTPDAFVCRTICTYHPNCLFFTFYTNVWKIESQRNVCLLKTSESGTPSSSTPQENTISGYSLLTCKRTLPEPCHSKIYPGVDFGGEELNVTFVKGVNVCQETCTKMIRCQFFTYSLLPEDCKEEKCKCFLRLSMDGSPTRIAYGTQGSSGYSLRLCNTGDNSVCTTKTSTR
Test substances are dissolved in dimethyl sulphoxide and serially diluted in dimethyl sulphoxide (3000 μM to 0.0078 μM; resulting final concentrations in the test: 50 μM to 0.00013 μM). 1 μl of the diluted substance solutions is placed into each of the wells of white microtitre plates from Greiner (384 wells). 20 μl of assay buffer (50 mM Tris/HCl pH 7.4; 100 mM sodium chloride solution; 5 mM of calcium chloride solution; 0.1% of bovine serum albumin) and 20 μl of plasma kallikrein from Kordia (0.6 nM in assay buffer) are then added successively. After 15 min of incubation, the enzyme reaction is started by addition of 20 μl of the substrate H-Pro-Phe-Arg-AMC dissolved in assay buffer (10 μM in assay buffer) from Bachem, the mixture is incubated at room temperature (22° C.) for 30 min and fluorescence is then measured (excitation: 360 nm, emission: 460 nm). The measured emissions of the test batches with test substance are compared to those of control batches without test substance (only dimethyl sulphoxide instead of test substance in dimethyl sulphoxide), and IC50 values are calculated from the concentration/activity relationships.

T1 sequence (P03951 388-625 limits assumed): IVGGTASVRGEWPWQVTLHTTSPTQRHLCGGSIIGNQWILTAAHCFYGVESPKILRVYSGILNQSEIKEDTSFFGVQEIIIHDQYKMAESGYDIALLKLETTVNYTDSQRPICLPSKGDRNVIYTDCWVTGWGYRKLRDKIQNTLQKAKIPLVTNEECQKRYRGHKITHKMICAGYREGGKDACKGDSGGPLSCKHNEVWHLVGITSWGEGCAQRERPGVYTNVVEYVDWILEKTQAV
T1 sequence (P03951 19-387 partner limits assumed): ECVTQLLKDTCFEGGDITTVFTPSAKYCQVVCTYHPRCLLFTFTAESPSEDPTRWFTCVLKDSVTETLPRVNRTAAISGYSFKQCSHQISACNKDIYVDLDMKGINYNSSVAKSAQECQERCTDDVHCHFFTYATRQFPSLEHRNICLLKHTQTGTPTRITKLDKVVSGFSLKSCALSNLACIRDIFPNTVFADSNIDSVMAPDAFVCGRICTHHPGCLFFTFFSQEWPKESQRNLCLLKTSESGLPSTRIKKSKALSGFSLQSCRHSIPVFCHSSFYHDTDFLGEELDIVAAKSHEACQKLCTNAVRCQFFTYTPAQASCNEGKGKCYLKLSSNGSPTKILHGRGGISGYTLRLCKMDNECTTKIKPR

What is called IC50 is the concentration at which inhibition is half-maximal. With `COc1cn(C(Cc2ccn(C)n2)C(=O)Nc2ccc(C(N)=O)c(F)c2)c(=O)cc1-c1cc(Cl)ccc1C#N` (racemic) [Example 38, 4-({2-[4-(5-Chloro-2-cyanophenyl)-5-methoxy-2-oxopyridin-1(2H)-yl]-3-(1-methyl-1H-pyrazol-3-yl)propanoyl}amino)-2-fluorobenzamide], the figures for the IC50 at human factor XIa and on human plasma kallikrein were 6.2 nM and 3.6 nM, respectively.

For the compound `COc1cn(C(Cc2ccccn2)C(=O)Nc2ccc(C(N)=O)c(F)c2)c(=O)cc1-c1cc(Cl)ccc1C#N` (single isomer, unassigned) [Example 28, 4-({2-[4-(5-Chloro-2-cyanophenyl)-5-methoxy-2-oxopyridin-1(2H)-yl]-3-(pyridin-2-yl)propanoyl}amino)-2-fluorobenzamide], the IC50 at human factor XIa came out at 6.6 nM; at human plasma kallikrein, 4.8 nM.
